Data on 1 compound can be found in patent publication US10039806B2, “Methods and compositions for treating antiprogestin-resistant cancers” (Fundación Sales, priority 2011, dated 2018).

SMILES strings stand for the structures.

One assay concerns 59-HI tumors. Kind of assay: Constitutive-resistant tumor transplanted s.c. in BALB/c mice. The class given is in vivo, mouse. The note with it: RU-486 12 mg/kg/day s.c.; 5azadC 1 mg/kg every other day i.p.; 13 days. As to the method:
(§1) C4-2-HI, 59-HI, and C4-HIR tumors were transplanted s.c nearby the mammary gland 4th in syngenic mice, and measured every 2 days (length and width). Treatments were initiated when the tumors were palpable. […] The mice were inoculated intraperitoneally (i.p.) with 0.75 mg/kg 5azadC (for C4-2-HI and C4-HIR tumors) or 1 mg/kg 5azadC (for 59-HI tumors) every other day. All the experiments were repeated twice using five mice per group. The animals were euthanized after 13 days of treatment, and tumor samples were removed and frozen at −80° C. or fixed in 10% formaldehyde.
(§2) Cytosolic or nuclear extracts were processed for western blots as described previously. The cells were lysed using Mammalian Protein Extraction Reagent (Pierce, Rockford, Ill.) according the manufacturer's instructions. The western blot membranes were incubated with antibodies against PR (C-19, Santa Cruz Biotech, CA, or Ab-7, Neomarkers, Lab Vision Corp, Fremont, Calif.), PRB (Ab-6, Neomarkers), ERKs (SC-94, Santa Cruz Biotech), E-Cad (610182, BD), Actin (1-19, Santa Cruz Biotech), DnmtI, Dnmt3a and Dnmt3b (H-300, H-295, and H-230, respectively, Santa Cruz Biotech), RARβ (SC-14028, Santa Cruz Biotech), PTEN Ab32199, Abcam), p16 (SC-1207, Santa Cruz Biotech), Rb (SC-50, Santa Cruz Biotech), or glucocorticoid receptors (GRs) (SC-1004, Santa Cruz Biotech) overnight at 4° C., at a concentration of 2 μg/ml in PBST (0.8% NaCl, 0.02% KCl, 0.144% Na2PO4, 0.024% KH2PO4, pH 7.4, 0.1% Tween 20). The band intensities from 3 to 4 different tumor samples indifferent western blots were quantified using Image Quant software.
(§3) Sections of formalin-fixed, paraffin-embedded tissue were processed as previously described and stained with the PRA-specific antibody (C-19) using the avidin-biotin-peroxidase complex technique (Vectastain Elite ABC kit; Vector), as described previously.
(§4) H&E stained sections of livers, spleens, and kidneys from the 5azadC-treated mice (1 mg/kg or 0.75 mg/kg/every other day; n=5) were studied by an expert mouse pathologist. The percentage of tumor stoma versus tumor parenchyma was quantified with the ImageJ software in treated and untreated tumors. The stromal area in relation to the total tumor area was calculated in five representative fields of each sample, using 400× magnification, in three different tumor samples of each group, and the mean±SEM was calculated. Mitotic and apoptotic indices were counted in 10 and 15 high-power fields (HPFs), respectively, of each section, using 1000× magnification, and expressed as the mean±SEM of the percentage of the ratios between the total number of events (mitosis or apoptosis) and the total cell number per HPF. Mitotic figures were identified morphologically by the condensed “hairy” aspect of the chromosomes. Morphological identification of apoptosis was performed according to criteria previously reported, which correlated with the deoxynucleotidyl transferase mediated dUTP-biotin nick end labeling (TUNEL) method.
(§5) C4-2-HI and 59-HI tumors were transplanted s.c nearby the mammary gland 4th in syngenic mice, and measured every 2 days (length and width). Treatments were initiated when the tumors were palpable. […] The mice were inoculated intraperitoneally (i.p.) with 0.75 mg/kg 5azadC every other day and s.c. with 1 mg/kg TSA every other day. All the experiments were repeated twice using five mice per group. The animals were euthanized after 13 days of treatment, and tumor samples were removed and frozen at −80 C or fixed in 10% formaldehyde.

A further assay deals with C4-2-HI tumors. The assay is described as above. The class given is in vivo, mouse. On the procedure: as §1, §2, §3, §4, §5
The subject of a further assay is HI-responsive tumors. As to the kind of experiment: MPA breast cancer model, HI-responsive tumors in vivo. More on the design: species or system mouse. The note with it: 1 mg/kg/day.
For a further assay, the system named is meningiomas. The note with it: 200 mg/day for 2-31 months; after one year; cited from earlier work.
Another assay deals with C4-HIR cells. As to the kind of experiment: (3H)-thymidine uptake, primary cultures of purified epithelial cells. The class given is cell-based, mouse. The note with it: 48 h, with MPA; P<0.001. As to the method: (§6) Epithelial cells and carcinoma-associated fibroblasts were separated by differential sedimentation and plated with 10% FCS. Carcinoma-associated fibroblasts were allowed to attach for 0.5 h and the epithelial cells for 24-48 h. The medium was replaced by fresh medium with 10% FCS; thereafter, it was changed every 2-3 days.
(§7) (3H)-thymidine-uptake was used as an indirect method to evaluate cell proliferation. In brief, cells were seeded into 96-well microplates. After attachment (24 h), the cells were incubated for 24 h with 1% steroid-stripped FCS and then for 48 h with the experimental solutions to be tested in 1% chFCS. Fifty percent of the medium was replaced with fresh medium every 24 h. The cells were incubated with 0.4 μCi of 3H-thymidine (specific activity: 20 Ci/mmol) for 24 h, trypsinized, and harvested in a cell harvester. In experiments in which 5azadC was used, the experiments were carried out using proliferating cells (presence of 10% FCS) to guarantee the effect of the demethylating agent. Three different experiments were made using octuplicates, and the means and standard deviations of one representative experiment of the other three are shown. The results are expressed as the proliferation index (cpm […] experimental group/cpm control; mean±SEM).

For the next assay, the system named is C4-HI cells. Described as above. The note with it: 48 h, with MPA; P<0.001. The class given is cell-based, mouse. As to the method: as §6, §7

Consider `CC#C[C@]1(O)CC[C@H]2[C@@H]3CCC4=CC(=O)CCC4=C3[C@@H](c3ccc(N(C)C)cc3)C[C@@]21C` [RU-486, mifepristone], for which the tumor growth result with 59-HI tumors is “no significant differences”; in the assay with C4-2-HI tumors (RU-486 12 mg/kg/day s.c., 5azadC 0.75 mg/kg every other day i.p., 13 days) it was “no significant differences”; in the assay with HI-responsive tumors it was “inhibitory effects”. The “tumor growth, MIF alone” value with C4-2-HI tumors (tumor only expresses PR-B, FIG. 15) is reported as “stimulated”. Moreover, the tumor response result in the assay on meningiomas is reported as “Five out of thirteen tumors responded”. Moreover, the MPA-induced proliferative effect result in the assay with C4-HIR cells and in the assay with C4-HI cells was “abolished” each time.
